Experimental data from article PMC12379159 (Journal of Natural Products, 2025).

Key:
EL-4-mRORγt cells = experiment: Resazurin conversion assay in EL-4-mRORγt cells; type: cell-based, murine; conditions: 5 μM, 20-24 h
Protocol: To check the metabolic activity of cells correlating with cell viability, cells were treated with the vehicle control (0.1% DMSO), digitonin as the positive control for cytotoxicity at 20 μg/mL (HEK293 cells) or 50 μg/mL (EL-4-mRORγt cells), or the compounds of interest at 5 μM for 18 h (HEK293 cells) or 20–24 h (EL-4-mRORγt cells). The next day, the medium was carefully removed and replaced with stripped DMEM without phenol red, containing 10 μg/mL resazurin sodium salt. Cells were incubated for 5 h before RFU values were measured at λem = 590 nm using a spectrophotometer. Cell viability was calculated as follows: Cell viability(%)=100×RFU value after compound treatment/RFU value after vehicle control treatment Cytotoxicity was defined as cell viability under 70% according to the ISO 10993–5 guidelines. Cell viability <90% is explicitly stated in the respective figure.

hRORγ LBD = target: T1, hRORγ LBD (Homo sapiens, UniProt P51449); experiment: Thermal stability by nano differential scanning fluorimetry (nanoDSF); type: binding; conditions: RORγ-LBD with 4 equiv ligand vs without ligand; mean ± SD
T1 construct: His tag (N, cleaved yes); made in house; host or cells: Escherichia coli BL21 DE3
T1 sequence (P51449 264-518): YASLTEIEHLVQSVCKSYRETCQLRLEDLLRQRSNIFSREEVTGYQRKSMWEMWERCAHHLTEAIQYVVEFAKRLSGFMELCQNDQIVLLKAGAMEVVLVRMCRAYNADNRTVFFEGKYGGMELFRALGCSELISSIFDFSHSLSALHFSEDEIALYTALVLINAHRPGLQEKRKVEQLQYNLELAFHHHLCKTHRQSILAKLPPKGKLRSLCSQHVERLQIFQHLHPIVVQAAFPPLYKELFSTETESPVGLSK
Protocol: Soluble proteins were purified on Ni Hitrap FFcrude column (Cytiva), followed by His tag removal by thrombin (MP Biomedicals) cleavage and by size exclusion chromatography on HiLoad Superdex200 column (Cytiva) equilibrated in 20 mM Tris-HCl pH 7.5, 150 mM NaCl, 1 mM TCEP (Hampton Research). Purity and homogeneity of the hRORγ LBD were assessed by SDS-PAGE. The purified protein was concentrated to 0.5–1.0 mg/mL with an Amicon Ultra 10 kDa MWCO. The aliquots of purified LBD were incubated with 4 equiv ligands or vehicle for thermal stability experiments.
Fluorescence-based thermal experiments were performed using a Prometheus NT.48 (NanoTemper Technologies, Germany) with grade standard capillaries containing 10 μL of RORγLBD with different ligands. […] NanoTemper PR. Stability Analysis v1.0.2 was used to fit the data and determine the melting temperatures Tm.

luciferase = target: T2, luciferase (Photinus pyralis, UniProt P08659); experiment: Direct luciferase inhibition check (cells transfected only with pTK-MH100 × 4-LUC and eGFP-N1); type: cell-based; conditions: 5 μM
T2 construct: expressed in transfected cells; host or cells: HEK293
Protocol: For luciferase assays, 8 × 10^6 HEK293 cells were seeded on 150 mm cell culture dishes and incubated for 5 h. Afterward, cells were transfected with the calcium phosphate coprecipitation method using 5 μg of the nuclear receptor (Gal4-hRORγ or full-length human RORγ), 5 μg of a luciferase reporter (pTK-MH100 × 4-LUC for Gal4-hRORγ experiments or RORE-LUC for full-length human RORγ experiments) and 3 μg eGFP-N1 (for assessing transfection efficiency) plasmid DNA and incubated overnight. […] The medium was changed the following day, and cells were further incubated for another four to 5 h before trypsin/EDTA was added to detach them from the dishes. […] RLUs were normalized to relative fluorescence units (RFU) to account for differences in cell number and transfection efficiency and then normalized to the vehicle control. Results are expressed as fold activation relative to the vehicle control.

T2 sequence (P08659 whole entry): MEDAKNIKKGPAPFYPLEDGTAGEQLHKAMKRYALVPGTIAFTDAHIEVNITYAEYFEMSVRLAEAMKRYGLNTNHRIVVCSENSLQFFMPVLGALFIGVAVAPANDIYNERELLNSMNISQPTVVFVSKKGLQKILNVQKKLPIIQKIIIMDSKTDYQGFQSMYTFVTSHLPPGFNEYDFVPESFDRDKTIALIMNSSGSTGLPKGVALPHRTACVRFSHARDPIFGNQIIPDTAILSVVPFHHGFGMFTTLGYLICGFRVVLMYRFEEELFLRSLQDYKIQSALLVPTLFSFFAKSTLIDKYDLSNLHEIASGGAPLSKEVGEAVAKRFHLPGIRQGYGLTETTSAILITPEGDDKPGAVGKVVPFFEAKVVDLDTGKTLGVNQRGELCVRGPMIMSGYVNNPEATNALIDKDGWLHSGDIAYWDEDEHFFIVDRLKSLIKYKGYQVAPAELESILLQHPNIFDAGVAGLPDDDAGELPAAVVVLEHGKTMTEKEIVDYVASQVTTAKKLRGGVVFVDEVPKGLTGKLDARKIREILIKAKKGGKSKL

## C=C(C)[C@@H]1CC[C@]2(C(=O)O)CC[C@]3(C)[C@H](CC[C@@H]4[C@@]5(C)C/C(=C/c6ccco6)C(=O)C(C)(C)[C@@H]5CC[C@]43C)[C@@H]12 [Compound 15, (2Z)-2-(2-furanylmethylene)-3-oxolup-20(29)-en-28-oic acid]
EL-4-mRORγt cells
  Cytotoxic effects, resazurin conversion assay: no cytotoxic effects
hRORγ LBD
  ΔTm measured with nano differential scanning fluorimetry: 9.6 ± 0.4 °C
luciferase
  Inhibition of luciferase enzyme activity: did not inhibit luciferase enzyme activity
